The target of the experiment is T1, G-Flamp1 (cpGFP inserted into mlCNBD of the MlotiK1 channel) (Mesorhizobium japonicum, UniProt Q98GN8, P285N/S308V).
T1 construct: gene mll3241; GFP D173G plus Citrine/sfGFP mutations) inserted between residues 285 and 286; N-terminal RSET 6xHis tag kept for Kd; tag-free (SUMO cut) for crystal; E. coli; monomer
T1 sequence (Q98GN8 213-355 P285N/S308V): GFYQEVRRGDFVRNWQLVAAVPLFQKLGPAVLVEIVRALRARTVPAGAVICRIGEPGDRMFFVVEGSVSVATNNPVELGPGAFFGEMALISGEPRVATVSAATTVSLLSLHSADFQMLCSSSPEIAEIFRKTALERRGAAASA
The experiment is described as follows: fluorescence titration of purified sensor (ex […] nm), sigmoidal fit. Type of experiment: binding.

As usually defined, the Kd is the constant that tells how readily two partners part at equilibrium. High values mean lower affinity, low ones higher affinity. `Nc1nc2c(ncn2[C@@H]2O[C@@H]3COP(=O)(O)O[C@H]3[C@H]2O)c(=O)[nH]1` [cGMP] registered a Kd of 30.1 µM.

The values are drawn from paper PMC9468011 (Nature Communications, 2022).
